From patent US20250011302A1, “INDOLE BIPYRIMIDINE COMPOUND, AND INTERMEDIATE THEREOF, PREPARATION METHOD THEREFOR AND USE THEREOF” (SHANGHAI ALLIST PHARMACEUTICALS CO., LTD., priority 2021, published 2025)

Tested on: Ba/F3 EGFR-Del19/T790M/C797S cells
Assay: Proliferation inhibitory activity against Ba/F3 EGFR-Del19/T790M/C797S cells (PrestoBlue method)
Type: cell-based, murine
Conditions: Mus musculus, Ba/F3 cells stably expressing EGFR Del19/T790M/C797S, 72 hours
Procedure: The proliferation inhibitory activity of the compounds in vitro against the Ba/F3 EGFR-Del19/T790M/C797S cells from the murine pro B cell line Ba/F3 that stably express EGFR proteins with Del19/T790M/C797S triple mutations, is determined by the PrestoBlue method.
Cell source: Ba/F3 EGFR-Del19/T790M/C797S cells are purchased from Crown Bioscience (Beijing) Co., Ltd.
Ba/F3 EGFR-Del19/T790M/C797S cells are cultured in RPMI1640 complete medium containing 10% fetal calf serum. Take Ba/F3 EGFR-Del19/T790M/C797S cells in the logarithmic growth phase, inoculate them in a 96-well plate at a cell density of 5000 cells/135 μl complete culture medium/well, and place them at a constant temperature incubator containing 5% CO2 at 37° C. for culturing for 24 hours. […]
Take out the 96-well cell culture plate from the CO2 constant temperature incubator, add 15 μl of Invitrogen™ PrestoBlue™ HS cell viability detection reagent (Cat. No.: P50201) to each well, and continue to incubate for 3 hours in the constant temperature incubator containing 5% CO2 at 37° C. Take out the 96-well cell culture plate and measure the fluorescence at the 560 nm excitation wavelength and 590 nm emission wavelength of a microplate reader. […]
Data were analyzed using GraphPad Prism 8.3 software, and nonlinear S-curve regression was used to fit the data to obtain a dose-effect curve, from which the IC50 value was calculated.

Row | IC50 [µM] | Compound
1 | 1.86 | CN(C)CCN(C)c1nc(OCC(F)(F)F)c(Nc2nccc(-c3cn(C)c4ccccc34)n2)cc1NC(=O)CCN(C)CCN(C)c1nc(OCC(F)(F)F)c(Nc2nccc(-c3cn(C)c4ccccc34)n2)cc1N [Compound 1]
2 | 0.293 | C=CC(=O)Nc1cc(Nc2nccc(-c3cn(C)c4ccccc34)n2)c(OCC(F)(F)F)nc1N(C)CCN(C)CCC(=O)Nc1cc(Nc2nccc(-c3cn(C)c4ccccc34)n2)c(OCC(F)(F)F)nc1N(C)CCN(C)C [Compound 4]
